Results as given in US20100285959A1, “HERBICIDAL MIXTURES” (priority 2006, published 2010).

Tests used:
[1] = tested on: wild chamomile (MATCH); test: Test 23 growth chamber, postemergence; format: in vivo, Matricaria chamomilla; details: 21 DAA
Procedure: (§1) A test was conducted to evaluate the effects on winter barley (HORVW, Hordeum vulgare L.), winter wheat (TRZAW, Triticum aestivum L.), and several weed species of mixtures of Compound 2 with the commercial herbicides (2,4-dichlorophenoxy)acetic acid (2,4-D) and (4-chloro-2-methylphenoxy)acetic acid (MCPA), auxin mimics. […] Plants were treated postemergence at the 2-4 leaf growth stage, and each treatment was replicated three times. […] Plants were watered as needed. […] Results are means of the three replicates.

[2] = tested on: common chickweed (STEME); test: Test 9 field trial, emerged weeds before corn planting; format: in vivo, Stellaria media; details: g a.i./ha: Cpd 2 100, Glyphosate 1540, Paraquat 1150
Procedure: Corn seeds (hybrid ‘Pioneer 34M91 RR’) were planted in mid spring season, about 3.8 cm deep in a silty clay loam soil having a pH of 6.7. Plots were 9.1 m long by 3.0 m. The field was managed using no-till practices. […] Compound 2 and paraquat treatments, alone and in combination, also included a surfactant. Glyphosate, alone and with Compound 2, included ammonium sulfate in the treatment mixture. […] The effects on the weeds in the treated plots and untreated control plots were recorded 7, 14, 23, 30 and 57 days after application. Most of the weed species could not be evaluated at every timing. Corn response was only evaluated 57 days after application. […] Results are the means of the three replicates.

[3] = tested on: tropical spiderwort (COMBE); test: Test 12 field trial, preemergence; format: in vivo, Commelina benghalensis; set-up: scale not given here; details: Cpd 2 or Cpd 1 62 g a.i./ha, Diuron 2000 g a.i./ha
Source text: (§2) In early-mid spring season, corn seeds (hybrid ‘Pioneer 3041’) were planted 5 cm deep and sugarcane nodes (variety RB-72.454) were planted 10 cm deep in separate plots in a clay soil having 2.6% organic matter and a pH of 5.6. Plots were 24 m long by 1.5 m wide with rows spaced 80 cm (corn) or 140 cm (sugarcane) apart. Corn seeds were spaced 15 cm apart and sugarcane nodes were spaced 10 cm apart within the rows. At the same time, weed seeds were broadcast over the surface of separate plots without a crop, one weed species per plot. The weed plots were rotary tilled to incorporate the weed seeds to a variety of depths. The field was managed using conventional tillage practices.

[4] = tested on: flint corn (ZEAMI); test: Test 12 field trial, preemergence; format: in vivo, Zea mays L. ssp. indurata; details: Cpd 2 or Cpd 1 62 g a.i./ha, Diuron 2000 g a.i./ha
Source text: as §2

[5] = tested on: redroot pigweed (AMARE); test: Test 21 growth chamber, postemergence; format: in vivo, Amaranthus retroflexus; details: 19 DAA
Procedure: as §1, with “species,” for “species”, “herbicide” for “herbicides”, “(2,4-D), an” for “(2,4-D) and (4-chloro-2-methylphenoxy)acetic acid (MCPA),”, “mimic.” for “mimics.”, “one time.” for “three times.”, “from single” for “means of the three”

[6] = tested on: wild chamomile (MATCH); test: Test 21 growth chamber, postemergence; format: in vivo, Matricaria chamomilla; details: 19 DAA
Procedure: as §1, with “species,” for “species”, “herbicide” for “herbicides”, “(2,4-D), an” for “(2,4-D) and (4-chloro-2-methylphenoxy)acetic acid (MCPA),”, “mimic.” for “mimics.”, “one time.” for “three times.”, “from single” for “means of the three”

[7] = tested on: redroot pigweed (AMARE); test: Test 23 growth chamber, postemergence; format: in vivo, Amaranthus retroflexus; details: 21 DAA
Procedure: as §1

[8] = tested on: arrowleaf sida (SIDRH); test: Test 12 field trial, preemergence; format: in vivo, Sida rhombifolia; set-up: scale not given here; details: Cpd 2 or Cpd 1 62 g a.i./ha, Diuron 2000 g a.i./ha
Source text: as §2

[9] = tested on: yellow nutsedge (CYPES); test: Test 14 field trial, preemergence, growth as percent of control; format: in vivo, Cyperus esculentus
Source text: (§3) Corn seeds (hybrid ‘Pioneer 31G96 RR’) were planted in mid spring season, 3.8 cm deep in a clay loam soil having 2% organic matter and a pH of 6.6. Plots were 6.1 m long by 3.0 m wide with rows spaced 76 cm apart. Seeds were spaced 15 cm apart within the rows. The field was managed using conventional tillage practices. […] Yellow nutsedge was only evaluated 19 and 28 days after application, and ivyleaf morningglory could only be evaluated 28 days after application. […] Results are the means of the three replicates. This growth inhibition data was converted to results in the form of “plant growth as a percent of control plant growth” using the calculation “100 minus growth inhibition”. […] For “growth as a percent of control” data, Colby's Equation calculates the expected additive effect of herbicidal mixtures having two active ingredients as follows:
(§4) Ga+b=GaGb/100 • wherein Ga+b is the growth as a percent of control of plants treated with the mixture expected from additive contribution of the individual components, • Ga is the observed growth as a percent of control of plants treated with the first active ingredient at the same use rate as in the mixture, and • Gb is the observed growth as a percent of control of plants treated with the second active ingredient at the same use rate as in the mixture. For mixtures having three active ingredients, Colby's Equation to calculate the expected additive effect of herbicidal mixtures is as follows:
(§5) Ga+b+c=GaGbGc/10,000 • wherein Ga and Gb are as defined above and • Ga+b+c is the growth as a percent of control of plants treated with the mixture expected from additive contribution of the individual components, and • Gc is the observed growth as a percent of control of plants treated with the third active ingredient at the same use rate as in the mixture. When these two forms of Colby's Equation are used, if the observed effects on weeds are less than the expected values, the mixture is synergistic.

[10] = tested on: ivyleaf morningglory (IPOHE); test: as above; format: in vivo, Ipomoea hederacea; details: 28 DAA
Source text: as §3, §4, §5

[11] = tested on: Florida beggarweed (DEDTO); test: Test 12 field trial, preemergence; format: in vivo, Desmodium tortuosum; set-up: scale not given here; details: Cpd 2 or Cpd 1 62 g a.i./ha, Diuron 2000 g a.i./ha
Source text: as §2

[12] = tested on: winter barley (HORVW); test: Test 23 growth chamber, postemergence; format: in vivo, Hordeum vulgare; details: 21 DAA
Procedure: as §1

[13] = 2,4-D or MCPA alone 250 g a.i./ha

| SMILES | STEME Obs ([2]; 7 DAA) [%] | STEME Obs ([2]; 14 DAA) [%] | STEME Obs ([2]; 23 DAA) [%] | STEME Obs ([2]; 30 DAA) [%] | STEME Obs ([2]; 57 DAA) [%] | COMBE Obs ([3]; 15 DAA) | COMBE Obs ([3]; 29 DAA) | COMBE Obs ([3]; 48 DAA) | COMBE Obs ([3]; 61 DAA) | ZEAMI Obs ([4]; 15 DAA) [%] | ZEAMI Obs ([4]; 29 DAA) [%] | ZEAMI Obs ([4]; 48 DAA) [%] | ZEAMI Obs ([4]; 61 DAA) [%] | SIDRH Obs ([8]; 15 DAA) | SIDRH Obs ([8]; 29 DAA) | SIDRH Obs ([8]; 48 DAA) | SIDRH Obs ([8]; 61 DAA) | DEDTO Obs ([11]; 15 DAA) | DEDTO Obs ([11]; 29 DAA) | DEDTO Obs ([11]; 48 DAA) | further results |
| --- | --- | --- | --- | --- | --- | --- | --- | --- | --- | --- | --- | --- | --- | --- | --- | --- | --- | --- | --- | --- | --- |
| COC(=O)c1nc(C2CC2)nc(N)c1Cl [Compound 2, methyl 6-amino-5-chloro-2-cyclopropyl-4-pyrimidinecarboxylate] | 22 | 13 | 3 | 0 | 0 | 50 | 40 | 40 | 40 | 15 | 10 | 0 | 15 | 40 | 90 | 70 | 60 | 100 | 70 | 80 | Postemergence MATCH Obs ([1]; Cpd 2 alone 4 g a.i./ha): 52; Postemergence MATCH Obs ([1]; Cpd 2 alone 8 g a.i./ha): 63; Postemergence MATCH Obs ([1]; Cpd 2 alone 16 g a.i./ha): 75; Postemergence AMARE Obs ([5]; Cpd 2 alone 16 g a.i./ha): 60; Postemergence MATCH Obs ([6]; Cpd 2 alone 16 g a.i./ha): 60; Postemergence AMARE Obs ([7]; Cpd 2 alone 4 g a.i./ha): 43; Postemergence AMARE Obs ([7]; Cpd 2 alone 8 g a.i./ha): 62; Postemergence AMARE Obs ([7]; Cpd 2 alone 16 g a.i./ha): 68; Obs growth % of control ([9]; 19 DAA, 75 g a.i./ha): 85%; Obs growth % of control ([9]; 19 DAA, 100 g a.i./ha): 78%; Obs growth % of control ([9]; 28 DAA, 75 g a.i./ha): 85%; Obs growth % of control ([9]; 28 DAA, 100 g a.i./ha): 90%; Obs growth % of control ([10]; 75 g a.i./ha): 0%; Obs growth % of control ([10]; 100 g a.i./ha): 0%; DEDTO Obs ([11]; 61 DAA): 60; Postemergence HORVW Obs ([12]; Cpd 2 alone 4 g a.i./ha): 32; Postemergence HORVW Obs ([12]; Cpd 2 alone 8 g a.i./ha): 38; Postemergence HORVW Obs ([12]; Cpd 2 alone 16 g a.i./ha): 38 |
| O=C(O)CNCP(=O)(O)O [Glyphosate] | 42 | 84 | 93 | 100 | 99 | – | – | – | – | – | – | – | – | – | – | – | – | – | – | – | – |
| O=C(O)COc1ccc(Cl)cc1Cl [2,4-D, (2,4-dichlorophenoxy)acetic acid] | – | – | – | – | – | – | – | – | – | – | – | – | – | – | – | – | – | – | – | – | Postemergence MATCH Obs [1, 13]: 60; Postemergence AMARE Obs ([5]; 2,4-D alone 125 g a.i./ha): 50; Postemergence AMARE Obs ([5]; 2,4-D alone 250 g a.i./ha): 50; Postemergence MATCH Obs ([6]; 2,4-D alone 125 g a.i./ha): 40; Postemergence MATCH Obs ([6]; 2,4-D alone 250 g a.i./ha): 45; Postemergence AMARE Obs [7, 13]: 67; Postemergence HORVW Obs [12, 13]: 25 |
| Nc1nc(C2CC2)nc(C(=O)O)c1Cl [Compound 1, 6-amino-5-chloro-2-cyclopropyl-4-pyrimidinecarboxylic acid] | – | – | – | – | – | 60 | 40 | 40 | 0 | 0 | 10 | 20 | 15 | 60 | 95 | 100 | 95 | 95 | 75 | 60 | DEDTO Obs ([11]; 61 DAA): 60 |
| CCc1cccc(C)c1N(C(=O)CCl)[C@@H](C)COC [S-Metolachlor, S-metolachlor, reference compound] | – | – | – | – | – | – | – | – | – | – | – | – | – | – | – | – | – | – | – | – | Obs growth % of control ([9]; 28 DAA, 1870 g a.i./ha): 8%; Obs growth % of control ([10]; 1870 g a.i./ha): 0% |
